The results in this text go back to US12239643B2, “Therapeutic agent for inflammatory diseases, autoimmune diseases, fibrotic diseases, and cancer diseases” (MEIJI SEIKA PHARMA CO., LTD., priority 2018, dated 2025).

Some results are limits rather than exact numbers.

For the first assay, the system named is PDE4. Briefly: Evaluation of PDE4 inhibitory activity, scintillation proximity assay. Particulars: scintillation proximity assay; class symbols of Evaluation 1; read-out: PDE4 Inhibitory Activity (concentration for the inhibition rate of 50%, IC50), Evaluation 1. It is filed as biochemical. The essentials: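 IC50 was derived from inhibition curves, referenced to an enzyme-free blank and a DMSO-only control. Compound, PDE4 preparation and tritiated cAMP reacted 120 min at RT in Tris-HCl buffer (pH 7.4) with MgCl2, EGTA and BSA; YSi-SPA beads with ZnSO4 bound product before scintillation counting.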
Turning to `O=C(c1ccc(-c2nccs2)c2oc(N3CC4CCC(C3)N4)nc12)N1CCCCC1` [Example 117, (2-(3,8-Diazabicyclo[3.2.1]octan-3-yl)-7-(thiazol-2-yl)benzo[d]oxazol-4-yl)(piperidin-1-yl)methanone], the IC50 was below 100 nM.

On to `COCCOc1cc(-c2nccs2)c2oc(N3CC4CCC(C3)N4)nc2c1` [Example 69, 2-(3,8-Diazabicyclo[3.2.1]octan-3-yl)-5-(2-methoxyethoxy)-7-(thiazol-2-yl)benzo[d]oxazole], for which the IC50 is below 100 nM.

Turning to `Clc1ccc(-c2nccs2)c2oc(N3CC4CC(C3)N4)nc12` [Example 37, 2-(3,6-Diazabicyclo[3.1.1]heptan-3-yl)-4-chloro-7-(thiazol-2-yl)benzo[d]oxazole], the IC50 is below 100 nM.

Turning to `OCC(CO)COc1cc(-c2nccs2)c2oc(N3CC4CCC(C3)N4)nc2c1` [Example 71, 2-(((2-(3,8-Diazabicyclo[3.2.1]octan-3-yl)-7-(thiazol-2-yl)benzo[d]oxazol-5-yl)oxy)methyl)propane-1,3-diol], the IC50 was below 100 nM.

In the case of `N#CCOc1ccc(-c2nccs2)c2oc(N3CC4CCC(C3)N4)nc12` [Example 82, 2-((2-(3,8-Diazabicyclo[3.2.1]octan-3-yl)-7-(thiazol-2-yl)benzo[d]oxazol-4-yl)oxy)acetonitrile], the IC50 was below 100 nM.

As to `COC(C)(c1cc(-c2nccs2)c2oc(N3CC4CC(C3)N4)nc2c1)C(F)(F)F` (stereo not drawn) [Example 103, 2-(3,6-Diazabicyclo[3.1.1]heptan-3-yl)-7-(thiazol-2-yl)-5-(1,1,1-trifluoro-2-methoxypropan-2-yl)benzo[d]oxazole], the IC50 is below 100 nM.

Turning to `Oc1ccc(-c2nccs2)c2oc(N3CC4CC(C3)N4)nc12` [Example 79, 2-(3,6-Diazabicyclo[3.1.1]heptan-3-yl)-7-(thiazol-2-yl)benzo[d]oxazol-4-ol], the IC50 was below 100 nM.

As to `FC(F)(F)Oc1cc(-c2nccs2)c2oc(N3CC4CCCC(C3)N4)nc2c1` [Example 55, 2-(3,9-Diazabicyclo[3.3.1]nonan-3-yl)-7-(thiazol-2-yl)-5-(trifluoromethoxy)benzo[d]oxazole], the IC50 is below 100 nM.

Turning to `NS(=O)(=O)c1cc(-c2nccs2)c2oc(N3CC4CC(C3)N4)nc2c1` [Example 58, 2-(3,6-Diazabicyclo[3.1.1]heptan-3-yl)-7-(thiazol-2-yl)benzo[d]oxazole-5-sulfonamide], the IC50 was below 100 nM.

For the compound `CC(C)c1cc(-c2nccs2)c2oc(N3CC4COCC(C3)N4)nc2c1` [Example 23, 7-(5-Isopropyl-7-(thiazol-2-yl)benzo[d]oxazol-2-yl)-3-oxa-7,9-diazabicyclo[3.3.1]nonane], the IC50 lay within 100 to 1000 nM.

Consider `NC(=O)c1cc(-c2nccs2)c2oc(N3CC4CCC(C3)N4)nc2c1` [Example 99, 2-(3,8-Diazabicyclo[3.2.1]octan-3-yl)-7-(thiazol-2-yl)benzo[d]oxazole-5-carboxamide], for which the IC50 was below 100 nM.

In the case of `N#CCOc1cc(-c2nccs2)c2oc(N3CC4CCC(C3)N4)nc2c1` [Example 73, 2-((2-(3,8-Diazabicyclo[3.2.1]octan-3-yl)-7-(thiazol-2-yl)benzo[d]oxazol-5-yl)oxy)acetonitrile], the IC50 is below 100 nM.

Turning to `FC(F)(F)c1cc(-c2nccs2)c2oc(N3CC4CCC(C3)N4)nc2c1` [Example 51, 2-(3,8-Diazabicyclo[3.2.1]octan-3-yl)-7-(thiazol-2-yl)-5-(trifluoromethyl)benzo[d]oxazole], the IC50 is below 100 nM.

With `FC(F)(F)COC(c1cc(-c2nccs2)c2oc(N3CC4CCC(C3)N4)nc2c1)C(F)(F)F` (stereo not drawn) [Example 146, 2-(3,8-Diazabicyclo[3.2.1]octan-3-yl)-7-(thiazol-2-yl)-5-(2,2,2-trifluoro-1-(2,2,2-trifluoroethoxy)ethyl)benzo[d]oxazole], the IC50 was below 100 nM.

For `O=C(c1cc(-c2nccs2)c2oc(N3CC4CCC(C3)N4)nc2c1)N1CCC1` [Example 97, (2-(3,8-Diazabicyclo[3.2.1]octan-3-yl)-7-(thiazol-2-yl)benzo[d]oxazol-5-yl)(azetidin-1-yl)methanone], the IC50 is below 100 nM.

The assay is the same for the next values; noted with them: scintillation proximity assay; read-out: PDE4 Inhibitory Activity (Evaluation 1; concentration for the inhibition rate of 50%).
For the compound `CC(C)(O)c1ccc(-c2nccs2)c2oc(N3CC4CCC(C3)N4)nc12` [Example 247, 2-(2-(3,8-Diazabicyclo[3.2.1]octan-3-yl)-7-(thiazol-2-yl)benzo[d]oxazol-4-yl)propan-2-ol], the IC50 is below 100 nM.

With `CC(C)(CO)Oc1ccc(-c2nccs2)c2oc(N3CC4CC(C3)N4)nc12` [Example 268, 2-((2-(3,6-Diazabicyclo[3.1.1]heptan-3-yl)-7-(thiazol-2-yl)benzo[d]oxazol-4-yl)oxy)-2-methylpropan-1-ol], the IC50 is below 100 nM.

On to `CC(O)c1cc(-c2nccs2)c2oc(N3CC4CC(C3)N4)nc2c1C(F)(F)F` (stereo not drawn) [Example 182, 1-(2-(3,6-Diazabicyclo[3.1.1]heptan-3-yl)-7-(thiazol-2-yl)-4-(trifluoromethyl)benzo[d]oxazol-5-yl)ethan-1-ol], for which the IC50 was below 100 nM.

Consider `O=C(c1cc(-c2nccs2)c2oc(N3CC4CCC(C3)N4)nc2c1OC(F)(F)F)N1CCC1` [Example 192, (2-(3,8-Diazabicyclo[3.2.1]octan-3-yl)-7-(thiazol-2-yl)-4-(trifluoromethoxy)benzo[d]oxazol-5-yl)(azetidin-1-yl)methanone], for which the IC50 was below 100 nM.

Regarding `N#CCOC(c1ccc(-c2nccs2)c2oc(N3CC4CC(C3)N4)nc12)C(F)(F)F` (stereo not drawn) [Example 226, 2-(1-(2-(3,6-Diazabicyclo[3.1.1]heptan-3-yl)-7-(thiazol-2-yl)benzo[d]oxazol-4-yl)-2,2,2-trifluoroethoxy)acetonitrile], the IC50 is below 100 nM.

Regarding `COC(C)(c1cc(-c2nccs2)c2oc(N3CC4CC(C3)N4)nc2c1OC(F)(F)F)C(F)(F)F` (stereo not drawn) [Example 214, 2-(3,6-Diazabicyclo[3.1.1]heptan-3-yl)-7-(thiazol-2-yl)-5-(1,1,1-trifluoro-2-methoxypropan-2-yl)-4-(trifluoromethoxy)benzo[d]oxazole], the IC50 was below 100 nM.

Turning to `O=C(O)c1ccc(-c2nccs2)c2oc(N3CC4CC(C3)N4)nc12` [Example 366, 2-(3,6-Diazabicyclo[3.1.1]heptan-3-yl)-7-(thiazol-2-yl)benzo[d]oxazole-4-carboxylic acid], the IC50 lay in the range of 100 to 1000 nM.

Consider `CC(C)(O)COC(c1ccc(-c2cscn2)c2oc(N3CC4CC(C3)N4)nc12)C(F)(F)F` (stereo not drawn) [Example 284, 1-(1-(2-(3,6-Diazabicyclo[3.1.1]heptan-3-yl)-7-(thiazol-4-yl)benzo[d]oxazol-4-yl)-2,2,2-trifluoroethoxy)-2-methylpropan-2-ol], for which the IC50 was below 100 nM.

Consider `CC(O)c1cc(-c2nccs2)c2oc(N3CC4CC(C3)N4)nc2c1OC(F)(F)F` (stereo not drawn) [Example 273, 1-(2-(3,6-Diazabicyclo[3.1.1]heptan-3-yl)-7-(thiazol-2-yl)-4-(trifluoromethoxy)benzo[d]oxazol-5-yl)ethan-1-ol], for which the IC50 is below 100 nM.

On to `COC(C)(C)c1cc(-c2cscn2)c2oc(N3CC4CCC(C3)N4)nc2c1OC(F)(F)F` [Example 298, 2-(3,8-Diazabicyclo[3.2.1]octan-3-yl)-5-(2-methoxypropan-2-yl)-7-(thiazol-4-yl)-4-(trifluoromethoxy)benzo[d]oxazole], for which the IC50 was below 100 nM.

Regarding `OC(c1cc(-c2cscn2)c2oc(N3CC4CC(C3)N4)nc2c1OC(F)(F)F)C(F)F` (stereo not drawn) [Example 301, 1-(2-(3,6-Diazabicyclo[3.1.1]heptan-3-yl)-7-(thiazol-4-yl)-4-(trifluoromethoxy)benzo[d]oxazol-5-yl)-2,2-difluoroethan-1-ol], the IC50 was below 100 nM.

For `CNS(=O)(=O)c1ccc(-c2nccs2)c2oc(N3CC4CC(C3)N4)nc12` [Example 386, 2-(3,6-Diazabicyclo[3.1.1]heptan-3-yl)-N-methyl-7-(thiazol-2-yl)benzo[d]oxazole-4-sulfonamide], the IC50 was below 100 nM.

Consider `COC(c1cc(-c2nccs2)c2oc(N3CC4CCC(C3)N4)nc2c1OC(F)(F)F)C(F)F` (stereo not drawn) [Example 209, 2-(3,8-Diazabicyclo[3.2.1]octan-3-yl)-5-(2,2-difluoro-1-methoxyethyl)-7-(thiazol-2-yl)-4-(trifluoromethoxy)benzo[d]oxazole], for which the IC50 was below 100 nM.

For `COC(C)(C)c1cc(-c2cscn2)c2oc(N3CC4CC(C3)N4)nc2c1OC(F)(F)F` [Example 287, 2-(3,6-Diazabicyclo[3.1.1]heptan-3-yl)-5-(2-methoxypropan-2-yl)-7-(thiazol-4-yl)-4-(trifluoromethoxy)benzo[d]oxazole], the IC50 was below 100 nM.

As for `FC(F)Oc1ccc(-c2nccs2)c2oc(N3CC4CCC(C3)N4)nc12` [Example 263, 2-(3,8-Diazabicyclo[3.2.1]octan-3-yl)-4-(difluoromethoxy)-7-(thiazol-2-yl)benzo[d]oxazole], the IC50 is below 100 nM.

With `OCc1cc(-c2nccs2)c2oc(N3CC4CCC(C3)N4)nc2c1OC(F)(F)F` [Example 201, (2-(3,8-Diazabicyclo[3.2.1]octan-3-yl)-7-(thiazol-2-yl)-4-(trifluoromethoxy)benzo[d]oxazol-5-yl)methanol], the IC50 was below 100 nM.

`CC(C)(O)C(C)(C)OC(c1ccc(-c2nccs2)c2oc(N3CC4CC(C3)N4)nc12)C(F)(F)F` (stereo not drawn) [Example 280, 3-(1-(2-(3,6-Diazabicyclo[3.1.1]heptan-3-yl)-7-(thiazol-2-yl)benzo[d]oxazol-4-yl)-2,2,2-trifluoroethoxy)-2,3-dimethylbutan-2-ol]: the IC50 was below 100 nM.

As for `FC(F)(/C=C/c1cccnc1)Oc1ccc(-c2nccs2)c2oc(N3CC4CC(C3)N4)nc12` [Example 406, (E)-2-(3,6-diazabicyclo[3.1.1]heptan-3-yl)-4-((1,1-difluoro-3-(pyridin-3-yl)allyl)oxy)-7-(thiazol-2-yl)benzo[d]oxazole], the IC50 was below 100 nM.
